Experimental data taken from PMC4787089 (Pharmacognosy Magazine, 2015).
pIC50: −log10 of the molar value. Read-outs that look alike come from different tables or passages of the source.

What was measured:
[1] = test system: tested cancer cell lines (HepG2, Hep2, HCT116, RD, MCF7); assay: In vitro cytotoxicity, summary statements over tested cancer cell lines; assay type: cell-based, human
[2] = molecular target: T1, recombinant HDAC8 (Homo sapiens, UniProt Q9BY41); assay: Histone deacetylase 8 inhibitory assay; assay type: biochemical; conditions: 10 μM
T1 sequence (Q9BY41 1-377): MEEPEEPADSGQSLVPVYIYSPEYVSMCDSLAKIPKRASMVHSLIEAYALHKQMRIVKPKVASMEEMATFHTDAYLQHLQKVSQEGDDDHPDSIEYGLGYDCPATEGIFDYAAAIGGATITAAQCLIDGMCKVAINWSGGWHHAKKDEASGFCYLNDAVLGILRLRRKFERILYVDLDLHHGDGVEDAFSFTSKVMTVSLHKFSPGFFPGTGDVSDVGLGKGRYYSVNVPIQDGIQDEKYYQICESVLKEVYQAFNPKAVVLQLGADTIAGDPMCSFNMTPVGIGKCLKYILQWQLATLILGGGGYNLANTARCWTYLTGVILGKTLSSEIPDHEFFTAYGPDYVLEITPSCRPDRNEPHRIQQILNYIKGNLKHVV

[3] = test system: bovine brain tubulin; assay: Tubulin polymerization assay; assay type: biochemical; conditions: 10 μM
[4] = Homo sapiens, RD, read-out: IC50 against cancer cell lines

Percentage inhibition HDAC8 activity [2]	Structure (SMILES)	pIC50 [1, 4]	other results
–	CC(=O)OC1c2c(ccc3ccc(=O)oc23)OC(C)(C)C1OC(=O)C(C)(O)C(C)O (stereo not shown) [Hyuganin E, hyuganin E]	–	SI (good selectivity), Hep2, HCT116, and MCF7 ([1]; Hep2, HCT116, and MCF7): > 3; pIC50 ([1]; read-out: IC50 values against Hep2, HCT116, and MCF7, Hep2, HCT116, and MCF7): > 4.60
–	O=c1c(O)c(-c2ccc(O)c(O)c2)oc2cc(O)cc(O)c12 [Quercetin, quercetin]	> 4.70	–
–	O=c1ccc2ccc3occc3c2o1 [Angelicin, angelicin]	> 4.70	SI against cancer cell lines ([1]; tested cancer cell lines (extract and quercetin: except RD cells)): > 7
–	O=c1cc(-c2ccc(O)c(O)c2)oc2cc(O)cc(O)c12 [Luteolin, luteolin]	> 4.70	–
stimulated HDAC8 activity	CC[C@H](CC[C@@H](C)[C@H]1CC[C@H]2[C@@H]3CC=C4C[C@@H](O[C@@H]5O[C@H](CO)[C@@H](O)[C@H](O)[C@H]5O)CC[C@]4(C)[C@H]3CC[C@]12C)C(C)C [β-Sitosterol-3-O-glucoside, β-sitosterol-3-O-glucoside]	–	–
< 30%	O=Cc1ccc(CO)o1 [5-(hydroxymethyl)-2-furaldehyde]	–	–
–	O=C(/C=C/c1ccc(O)c(O)c1)O[C@@H]1C[C@](O)(C(=O)O)C[C@@H](O)[C@H]1O [Chlorogenic acid, chlorogenic acid]	–	Percentage inhibition tubulin polymerization [3]: moderate inhibition
stimulated HDAC8 activity	Nc1ncnc2c1ncn2[C@@H]1O[C@H](CO)[C@@H](O)[C@H]1O [Adenosine, adenosine]	–	–
